# Tested on: moderate-to-severe chronic spontaneous urticaria (CSU)
# Assay: Phase 2 CSU study: urticaria activity score over 7 days (UAS7)
# Format: in vivo, human
# Design: key to UAS7 Median / UAS7 Change from baseline Median / UAS7 change from baseline, Q1 / UAS7 change from baseline, Q3 / UAS7 change from baseline, Max / UAS7 Change from baseline LS Mean (SE): UAS7 points; daily UAS score ranges 0–6 points/day, over 7 days
# Conditions: for UAS7 Post-baseline Mean (SD) / UAS7 % Change difference for rilzabrutinib vs. placebo LS Mean (95% CI) / UAS7 % Change from baseline LS Mean (SE) / UAS7 Change difference for rilzabrutinib vs. placebo LS Mean (95% CI) / UAS7 Change from baseline LS Mean (SE): Omalizumab-Naïve Population; for Change from Baseline in UAS7 at Week 12: LS Mean (SE) / Change from Baseline in UAS7 at Week 12: LS Mean Diff vs. placebo (95% CI) / Change from Baseline in UAS7 at Week 12: Mean (SD): Omalizumab-Naïve
# Text: The study comprises a 12 week, randomized, double-blind, placebo-controlled, multi-center, dose-ranging efficacy and safety phase, followed by a 40 week open label extension (OLE) phase (see FIG. 1). The study consists of three phases and an optional OLE phase. […] Clinically, CSU is characterized by the spontaneous and recurrent appearance of pruritic hives. The proposed primary endpoints were the UAS7 at Week 12 in EU and EU reference countries and the ISS7 in the US. Regardless of where a participant was from, all assessments were the same. The UAS7 score is a composite score containing both the HSS7 and the ISS7. This allowed a global assessment of the two key components of urticaria: hives and itch. […] The UAS is a validated PRO measure. […] The daily UAS scores range from 0 to 6 point/day. […] Patients were to complete the UAS using the e-diary. […] The following secondary endpoints were to be analyzed using the same approach as for the primary endpoint: • Change from baseline in UAS7 at Week 4 • Change from baseline in UAS7 at Week 12 (for US and US reference countries) • Change from baseline in ISS7 at Week 12 (except US and US reference countries) • Change from baseline in HSS7 at Week 12 The following responder secondary endpoints were to be analyzed using the Cochran-Mantel-Haenszel test adjusted by region: • Proportion of participants with UAS7<6 at Week 12 • Proportion of participants with UAS7=0 at Week 12 Participants who received selected prohibited medications and/or rescue medications were to be considered as non-responders for time points after the medication usage. For other participants, all available data including those collected during the off-treatment period were to be used to determine the responder/non-responder status. Missing data were to be considered as non-responders.
# [1] = Age group (years) <44 (Median), 400 mg BID
# [2] = Age group (years) <44 (Median), 400 mg QPM
# [3] = Age group (years) <44 (Median), 400 mg TID
# [4] = Age group (years) <65, 400 mg BID
# [5] = Age group (years) <65, 400 mg QPM
# [6] = Age group (years) <65, 400 mg TID
# [7] = Age group (years) ≥44 (Median), 400 mg BID
compound,measurement,setting,value
"CC(C)(C=C(C#N)C(=O)N1CCC[C@@H](n2nc(-c3ccc(Oc4ccccc4)cc3F)c3c(N)ncnc32)C1)N1CCN(C2COC2)CC1 [rilzabrutinib, (R)-2-[3-[4-amino-3-(2-fluoro-4-phenoxy-phenyl)pyrazolo[3,4-d]pyrimidin-1-yl]piperidine-1-carbonyl]-4-methyl-4-[4-(oxetan-3-yl)piperazin-1-yl]pent-2-enenitrile]",UAS7 Post-baseline Mean (SD),"400 mg QPM, Week 3",22.01 (9.00)
same,UAS7 % Change difference for rilzabrutinib vs. placebo LS Mean (95% CI),"400 mg QPM, Week 4",−8.22%
same,UAS7 % Change from baseline LS Mean (SE),"400 mg QPM, Week 4",−28.63 (5.66) %
same,UAS7 Change difference for rilzabrutinib vs. placebo LS Mean (95% CI),"400 mg QPM, Week 4",−2.08
same,UAS7 Change from baseline LS Mean (SE),"400 mg QPM, Week 4",−9.14 (1.66)
same,UAS7 Post-baseline Mean (SD),"400 mg QPM, Week 4",21.92 (8.82)
same,UAS7 Post-baseline Mean (SD),"400 mg QPM, Week 5",20.63 (9.18)
same,UAS7 Post-baseline Mean (SD),"400 mg QPM, Week 6",20.21 (10.42)
same,UAS7 Post-baseline Mean (SD),"400 mg QPM, Week 7",21.11 (10.03)
same,UAS7 Post-baseline Mean (SD),"400 mg QPM, Week 9",20.25 (10.25)
same,UAS7 Post-baseline Mean (SD),"400 mg QPM, Week 10",20.27 (10.69)
same,UAS7 Post-baseline Mean (SD),"400 mg QPM, Week 11",21.17 (11.16)
same,UAS7 % Change difference for rilzabrutinib vs. placebo LS Mean (95% CI),"400 mg QPM, Week 12",−4.51%
same,UAS7 % Change from baseline LS Mean (SE),"400 mg QPM, Week 12",−34.79 (6.80) %
same,UAS7 Change difference for rilzabrutinib vs. placebo LS Mean (95% CI),"400 mg QPM, Week 12",0.40
same,UAS7 Change from baseline LS Mean (SE),"400 mg QPM, Week 12",−9.74 (2.00)
same,UAS7 % Change difference for rilzabrutinib vs. placebo LS Mean (95% CI),"400 mg TID, Week 1",−27.13%
same,UAS7 % Change from baseline LS Mean (SE),"400 mg TID, Week 1",−36.60 (5.66) %
same,UAS7 Change difference for rilzabrutinib vs. placebo LS Mean (95% CI),"400 mg TID, Week 1",−7.89
same,UAS7 Change from baseline LS Mean (SE),"400 mg TID, Week 1",−11.44 (1.56)
same,UAS7 Post-baseline Mean (SD),"400 mg TID, Week 1",17.77 (10.26)
same,UAS7 % Change difference for rilzabrutinib vs. placebo LS Mean (95% CI),"400 mg TID, Week 2",−27.13%
same,UAS7 % Change from baseline LS Mean (SE),"400 mg TID, Week 2",−44.90 (5.51) %
same,UAS7 Change difference for rilzabrutinib vs. placebo LS Mean (95% CI),"400 mg TID, Week 2",−7.73
same,UAS7 Change from baseline LS Mean (SE),"400 mg TID, Week 2",−13.63 (1.56)
same,UAS7 Post-baseline Mean (SD),"400 mg TID, Week 2",15.65 (10.66)
same,UAS7 % Change difference for rilzabrutinib vs. placebo LS Mean (95% CI),"400 mg TID, Week 3",−27.19%
same,UAS7 % Change from baseline LS Mean (SE),"400 mg TID, Week 3",−47.14 (5.69) %
same,UAS7 Change difference for rilzabrutinib vs. placebo LS Mean (95% CI),"400 mg TID, Week 3",−6.90
same,UAS7 Change from baseline LS Mean (SE),"400 mg TID, Week 3",−13.83 (1.65)
same,UAS7 Post-baseline Mean (SD),"400 mg TID, Week 3",15.37 (9.87)
same,UAS7 % Change difference for rilzabrutinib vs. placebo LS Mean (95% CI),"400 mg TID, Week 4",−26.33%
same,UAS7 % Change from baseline LS Mean (SE),"400 mg TID, Week 4",−46.75 (5.92) %
same,UAS7 Change difference for rilzabrutinib vs. placebo LS Mean (95% CI),"400 mg TID, Week 4",−6.60
same,UAS7 Change from baseline LS Mean (SE),"400 mg TID, Week 4",−13.66 (1.72)
same,UAS7 Post-baseline Mean (SD),"400 mg TID, Week 4",14.65 (9.61)
same,UAS7 Change difference for rilzabrutinib vs. placebo LS Mean (95% CI),"400 mg TID, Week 5",−5.10
same,UAS7 Change from baseline LS Mean (SE),"400 mg TID, Week 5",−15.54 (1.72)
same,UAS7 Post-baseline Mean (SD),"400 mg TID, Week 5",13.41 (10.60)
same,UAS7 Post-baseline Mean (SD),"400 mg TID, Week 6",14.10 (11.23)
same,UAS7 Post-baseline Mean (SD),"400 mg TID, Week 7",13.54 (9.34)
same,UAS7 Post-baseline Mean (SD),"400 mg TID, Week 8",13.36 (9.81)
same,UAS7 Post-baseline Mean (SD),"400 mg TID, Week 9",12.57 (9.72)
same,UAS7 Post-baseline Mean (SD),"400 mg TID, Week 10",12.61 (9.89)
same,UAS7 Post-baseline Mean (SD),"400 mg TID, Week 12",11.00 (9.90)
same,Change from Baseline in UAS7 at Week 12: LS Mean (SE),[1],−13.80 (2.95)
same,Change from Baseline in UAS7 at Week 12: LS Mean Diff vs. placebo (95% CI),[1],"−5.42 (−13.05, 2.21)"
same,Change from Baseline in UAS7 at Week 12: Mean (SD),[1],−11.98 (9.69)
same,Change from Baseline in UAS7 at Week 12: LS Mean (SE),[2],−9.54 (2.74)
same,Change from Baseline in UAS7 at Week 12: Mean (SD),[2],−10.45 (10.67)
same,Change from Baseline in UAS7 at Week 12: LS Mean (SE),[3],−16.19 (3.68)
same,Change from Baseline in UAS7 at Week 12: LS Mean Diff vs. placebo (95% CI),[3],"−7.80 (−16.46, 0.86)"
same,Change from Baseline in UAS7 at Week 12: Mean (SD),[3],−18.69 (10.55)
same,Change from Baseline in UAS7 at Week 12: LS Mean (SE),[4],−13.99 (2.04)
same,Change from Baseline in UAS7 at Week 12: LS Mean Diff vs. placebo (95% CI),[4],"−3.58 (−9.19, 2.03)"
same,Change from Baseline in UAS7 at Week 12: Mean (SD),[4],−13.91 (11.95)
same,Change from Baseline in UAS7 at Week 12: LS Mean (SE),[5],−9.12 (1.96)
same,Change from Baseline in UAS7 at Week 12: LS Mean Diff vs. placebo (95% CI),[5],"1.30 (−4.27, 6.86)"
same,Change from Baseline in UAS7 at Week 12: Mean (SD),[5],−10.37 (9.46)
same,Change from Baseline in UAS7 at Week 12: LS Mean (SE),[6],−16.30 (2.11)
same,Change from Baseline in UAS7 at Week 12: LS Mean Diff vs. placebo (95% CI),[6],"−5.88 (−11.58, −0.19)"
same,Change from Baseline in UAS7 at Week 12: Mean (SD),[6],−18.19 (11.00)
same,Change from Baseline in UAS7 at Week 12: LS Mean (SE),[7],−15.12 (2.72)
same,Change from Baseline in UAS7 at Week 12: LS Mean Diff vs. placebo (95% CI),[7],"−3.56 (−11.91, 4.80)"
same,Change from Baseline in UAS7 at Week 12: Mean (SD),[7],−16.63 (13.80)
same,Change from Baseline in UAS7 at Week 12: LS Mean (SE),"Age group (years) ≥44 (Median), 400 mg QPM",−8.84 (2.81)

# — patent publication US20260256792A1, “TREATMENT OF CHRONIC SPONTANEOUS URTICARIA BY ADMINISTERING (R)-2-[3-[4-AMINO-3-(2-FLUORO-4-PHENOXY-PHENYL)PYRAZOLO[3,4-D]PYRIMIDIN-1-YL]PIPERIDINE-1-CARBONYL]-4-METHYL-4-[4-(OXETAN-3-YL)PIPERAZIN-1-YL]PENT-2-ENENITRILE” (priority 2023, published 2026)
